Measurements from ChEMBL document CHEMBL1201862, “PubChem BioAssay data set” (2004).
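The compound was tested at five concentrations on cells cultured in 96-well plates, with a 48-hour exposure period. GI50: concentration for 50% inhibition of growth.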 Calls of active or inactive are those of the source. No stated cut-off is given here; in the data, active = GI50 up to about 1.1 µM and inactive = higher.

How the values were obtained:
Assay in all cases: DTP human tumour cell line panel, 48 h
A549 = test system: A549
CAKI-1 = test system: CAKI-1
EKVX = test system: EKVX
HOP-62 = test system: HOP-62
HT-29 = test system: HT-29
K562 = test system: K562
LOX IMVI = test system: LOX IMVI
MCF7 = test system: MCF7
MDA-MB-231 = test system: MDA-MB-231
NCI-H522 = test system: NCI-H522
OVCAR-8 = test system: OVCAR-8
RPMI-8226 = test system: RPMI-8226
SF-539 = test system: SF-539
SK-MEL-5 = test system: SK-MEL-5
SNB-75 = test system: SNB-75
UACC-257 = test system: UACC-257
M14 = test system: M14
OVCAR-4 = test system: OVCAR-4
OVCAR-5 = test system: OVCAR-5
SK-OV-3 = test system: SK-OV-3

Row | SMILES | GI50 (A549) | GI50 (CAKI-1) | GI50 (EKVX) | GI50 (HOP-62) | GI50 (HT-29) | GI50 (K562) | GI50 (LOX IMVI) | GI50 (MCF7) | GI50 (MDA-MB-231) | GI50 (NCI-H522) | GI50 (OVCAR-8) | GI50 (RPMI-8226) | GI50 (SF-539) | GI50 (SK-MEL-5) | GI50 (SNB-75) | GI50 (UACC-257) | GI50 (M14) | GI50 (OVCAR-4) | GI50 (OVCAR-5) | GI50 (SK-OV-3)
1 | CC(C)(C)c1cc(S(=O)(=O)O)c2oc(-c3ccccc3)cc(=O)c2c1 | > 100 µM (inactive) | > 100 µM (inactive) | > 100 µM (inactive) | > 100 µM (inactive) | > 100 µM (inactive) | > 100 µM (inactive) | > 100 µM (inactive) | > 100 µM (inactive) | > 100 µM (inactive) | > 100 µM (inactive) | > 100 µM (inactive) | > 100 µM (inactive) | > 100 µM (inactive) | > 100 µM (inactive) | > 100 µM (inactive) | > 100 µM (inactive) | – | – | – | –
2 | NCCCn1c2ccccc2c2c3c(c4c(c21)CCC(O)CC4)C(=O)NC3=O (configuration not stated) | 4.86 µM (inactive) | 3.66 µM (inactive) | 9.18 µM (inactive) | 2.5 µM (inactive) | 0.729 µM (active) | 0.69 µM (active) | 1.01 µM (active) | 0.796 µM (active) | 1.85 µM (inactive) | 2.44 µM (inactive) | 5.01 µM (inactive) | 1.98 µM (inactive) | 6.61 µM (inactive) | 3.31 µM (inactive) | – | 14.8 µM (inactive) | 4.48 µM (inactive) | 1.85 µM (inactive) | 2.24 µM (inactive) | –
3 | C1=Cc2cccc3occ(c23)C=C1 | > 100 µM (inactive) | > 100 µM (inactive) | 49.3 µM (inactive) | > 100 µM (inactive) | 35.1 µM (inactive) | 16.3 µM (inactive) | 17.9 µM (inactive) | 31.8 µM (inactive) | > 100 µM (inactive) | 33 µM (inactive) | 46.8 µM (inactive) | – | 37.4 µM (inactive) | > 100 µM (inactive) | – | > 100 µM (inactive) | > 100 µM (inactive) | 56.9 µM (inactive) | > 100 µM (inactive) | > 100 µM (inactive)
4 | Cc1cccc(C)c1NC(=O)/C(Cc1nc2ccc([N+](=O)[O-])cc2nc1O)=N\NC(N)=O | > 100 µM (inactive) | > 100 µM (inactive) | 64.6 µM (inactive) | – | > 100 µM (inactive) | 39.7 µM (inactive) | 22.1 µM (inactive) | 63.1 µM (inactive) | > 100 µM (inactive) | 31.6 µM (inactive) | > 100 µM (inactive) | 37.9 µM (inactive) | > 100 µM (inactive) | > 100 µM (inactive) | > 100 µM (inactive) | > 100 µM (inactive) | > 100 µM (inactive) | 90.6 µM (inactive) | > 100 µM (inactive) | > 100 µM (inactive)
5 | O=C1CC(c2ccsc2)n2cccc21 (configuration not stated) | > 100 µM (inactive) | > 100 µM (inactive) | > 100 µM (inactive) | > 100 µM (inactive) | > 100 µM (inactive) | > 100 µM (inactive) | – | > 100 µM (inactive) | > 100 µM (inactive) | > 100 µM (inactive) | > 100 µM (inactive) | > 100 µM (inactive) | > 100 µM (inactive) | > 100 µM (inactive) | 32.1 µM (inactive) | > 100 µM (inactive) | > 100 µM (inactive) | > 100 µM (inactive) | > 100 µM (inactive) | > 100 µM (inactive)
6 | CSC(=S)N/N=C(\C)c1cccc(C)n1 | 0.762 µM (active) | 1.1 µM (active) | 1.16 µM (inactive) | 0.953 µM (active) | 0.133 µM (active) | 0.042 µM (active) | 1.13 µM (inactive) | 0.128 µM (active) | 1.85 µM (inactive) | 0.0815 µM (active) | 0.769 µM (active) | – | 1.17 µM (inactive) | 0.558 µM (active) | 1.86 µM (inactive) | 0.92 µM (active) | 0.312 µM (active) | 0.497 µM (active) | 5.77 µM (inactive) | 0.719 µM (active)
7 | Cc1cn(C2CC(O)C(COC(=O)NCCC(F)(F)C(F)(F)C(F)(F)C(F)(F)F)O2)c(=O)[nH]c1=O (configuration not stated) | > 100 µM (inactive) | > 100 µM (inactive) | > 100 µM (inactive) | > 100 µM (inactive) | > 100 µM (inactive) | > 100 µM (inactive) | – | > 100 µM (inactive) | > 100 µM (inactive) | > 100 µM (inactive) | > 100 µM (inactive) | – | > 100 µM (inactive) | > 100 µM (inactive) | 54.7 µM (inactive) | > 100 µM (inactive) | > 100 µM (inactive) | > 100 µM (inactive) | > 100 µM (inactive) | > 100 µM (inactive)
